In assay [1] the target is T1, RNR (R1 and R2 recombinant proteins) (Homo sapiens, UniProt P23921).
T1 construct: made in house; host or cells: Escherichia coli
T1 sequence (P23921 1-792): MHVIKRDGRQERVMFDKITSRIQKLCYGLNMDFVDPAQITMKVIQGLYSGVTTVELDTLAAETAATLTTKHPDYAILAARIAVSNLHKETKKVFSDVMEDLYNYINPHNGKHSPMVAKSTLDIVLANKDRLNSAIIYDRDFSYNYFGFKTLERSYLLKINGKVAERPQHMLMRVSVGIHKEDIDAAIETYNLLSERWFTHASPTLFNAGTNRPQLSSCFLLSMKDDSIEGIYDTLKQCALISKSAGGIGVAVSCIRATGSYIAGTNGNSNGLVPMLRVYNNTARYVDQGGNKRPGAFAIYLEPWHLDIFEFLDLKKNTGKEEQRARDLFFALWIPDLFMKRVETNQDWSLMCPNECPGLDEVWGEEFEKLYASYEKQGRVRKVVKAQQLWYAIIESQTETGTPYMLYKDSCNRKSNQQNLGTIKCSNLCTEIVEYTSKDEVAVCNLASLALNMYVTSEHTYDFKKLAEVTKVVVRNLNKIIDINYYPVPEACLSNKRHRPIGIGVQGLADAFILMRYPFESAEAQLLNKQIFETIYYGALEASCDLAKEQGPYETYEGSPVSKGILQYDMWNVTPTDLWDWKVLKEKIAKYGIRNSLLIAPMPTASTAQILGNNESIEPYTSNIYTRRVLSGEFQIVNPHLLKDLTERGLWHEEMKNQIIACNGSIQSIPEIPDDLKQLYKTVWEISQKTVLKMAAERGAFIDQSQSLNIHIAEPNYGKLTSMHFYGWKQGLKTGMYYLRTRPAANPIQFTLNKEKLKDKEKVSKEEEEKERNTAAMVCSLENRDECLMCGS
Nature of the assay: RNR assay (formation of dCDP from CDP). In kind it is biochemical. The following applies: CDP to dCDP; mean ± SD; read-out: Enzyme IC50. On the procedure:
The binding affinity of TAS1553 to the R1 subunit was investigated using surface plasmon resonance (SPR) binding analysis. […] Next, we evaluated the inhibitory effect of TAS1553 against the enzymatic activity of RNR, consisting of R1 and R2 recombinant proteins. RNR activity was determined by its ability to reduce cytidine diphosphate (CDP) to deoxycytidine diphosphate (dCDP), based on a previous report. […] In addition to the inhibitory effect on RNR, TAS1553 was evaluated in a Eurofins LeadProfilingScreen panel assay including 68 proteins, such as ion channels, transporters, nuclear receptors, and G protein-coupled receptors, to examine its potential adverse activity.
The inhibition of RNR activity by the test compound was evaluated by measuring the formation of dCDP from CDP, as reported previously. The assay was performed for 30 min at 37 °C in a reaction mixture composed of 50 mmol/L HEPES, 4 mmol/L magnesium acetate, 100 mmol/L KCl, 6 mmol/L DTT, 2 mmol/L ATP, 0.24 mmol/L NADPH, 10.0 µmol/L CDP, 0.1 mg/mL BSA, 8.0 µg/mL His-R1, 2.4 µg/mL His-R2, and 1% DMSO with or without test compound. The reaction was discontinued by heat treatment at 95 °C for 5 min. The amount of dCDP after the reaction was quantified by a prominence HPLC system and LabSolutions software (SHIMADZU CORPORATION). Separations were performed at 265 nm in a Shim-pack XR-ODS column of particle size 2.2 μm (100 × 3.0 mm, SHIMADZU GLC Ltd.). Overall, 5 µL of each sample was injected, and chromatography was performed at 40 °C. Mobile A was composed of 10 mmol/L potassium dihydrogenphosphate, 10 mmol/L tetrabutylammonium hydroxide, 0.25% methanol and 8 mmol/L HCl. Mobile B was composed of 50 mmol/L potassium dihydrogenphosphate, 5.6 mmol/L tetrabutylammonium hydroxide, and 30% methanol. The gradient was as follows: 52–60% B for 9 min, 60–99% B for 1 min, 99% B for 5 min, 99–52% B for 1 min, and 52% B for 5 min. The flow rate was 0.5 mL/min. The experiment was performed in triplicates. IC50 values were calculated using the SAS software package.

The next assay deals with T2, human R1 (Homo sapiens, UniProt P23921).
T2 construct: made in house; host or cells: Escherichia coli
T2 sequence (P23921 1-792): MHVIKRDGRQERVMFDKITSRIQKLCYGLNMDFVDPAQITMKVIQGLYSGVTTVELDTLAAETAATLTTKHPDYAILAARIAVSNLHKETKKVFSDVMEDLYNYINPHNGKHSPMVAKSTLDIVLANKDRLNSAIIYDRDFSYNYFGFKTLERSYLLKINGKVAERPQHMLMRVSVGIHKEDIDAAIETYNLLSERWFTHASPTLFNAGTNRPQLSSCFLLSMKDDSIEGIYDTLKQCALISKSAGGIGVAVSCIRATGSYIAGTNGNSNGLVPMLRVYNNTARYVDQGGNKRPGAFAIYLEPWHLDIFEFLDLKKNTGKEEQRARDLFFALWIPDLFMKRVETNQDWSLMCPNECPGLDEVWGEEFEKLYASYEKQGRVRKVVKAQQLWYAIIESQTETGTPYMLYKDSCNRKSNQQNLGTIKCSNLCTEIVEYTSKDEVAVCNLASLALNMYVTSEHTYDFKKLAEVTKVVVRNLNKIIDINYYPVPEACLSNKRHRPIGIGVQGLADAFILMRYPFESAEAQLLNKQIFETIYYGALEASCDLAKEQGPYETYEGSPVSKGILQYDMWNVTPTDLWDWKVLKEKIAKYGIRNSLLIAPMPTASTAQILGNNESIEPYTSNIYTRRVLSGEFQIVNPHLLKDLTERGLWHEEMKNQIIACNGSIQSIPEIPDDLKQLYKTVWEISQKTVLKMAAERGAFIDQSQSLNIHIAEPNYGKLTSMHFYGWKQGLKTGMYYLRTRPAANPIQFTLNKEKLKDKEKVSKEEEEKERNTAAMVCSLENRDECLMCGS
As to the kind of experiment: Fluorescence polarization binding assay (displacement of TAMRA-labeled P7 from R1). The following applies: R1 and TAMRA-labeled P7; mean ± SD, three independent experiments; read-out: IC50, fluorescent polarization binding assay. From the text:
Fig. 1 Design and identification of the small molecule compound TAS1553 blocking the interaction between RNR subunits. a A schematic representation of the fluorescent polarization binding assay. TAMRA-labeled P7 heptapeptide was used as a probe. […] Data are presented as mean ± SD obtained from three independent experiments. c Chemical structures of compound 1 and TAS1553. d Superposition of the X-ray co-crystal structure of human RRM1 (green) with compound 1 (magenta) (PDB ID: 6L3R) to the previously determined X-ray co-crystal structure of Saccharomyces cerevisiae RNR1 (cyan) with P7 peptide (yellow) (PDB ID: 2ZLF). The residue numbers and protein surface shown here are those of hRRM1. e SPR analysis for the binding of TAS1553 to human R1 captured onto Series S Sensor Chip NTA. […] IC50 (mean ± SD) is determined from three independent experiments performed in triplicate.
TAMRA-labeled P7 peptide was obtained from Peptide Institute, Inc. to be used as a fluorescent probe in the FP binding assay. The final reaction mixture was composed of 50 mmol/L Tris-Cl (pH 8.0), 10 mmol/L DTT, 10 nmol/L TAMRA-P7, 32 ng/mL His-R1, and 1% DMSO with or without test compound. The assay was performed for 120 min at room temperature with protection from light, after which FP of each sample was measured with a PHERAstarFS. IC50 values were calculated using the SAS software package in EXSUS (CAC Croit).

For assay [2], the target named is T3, interaction between R1 and R2 (human RNR) (Homo sapiens, UniProt P23921).
T3 construct: host or cells: Escherichia coli (His-R1)
T3 sequence (P23921 1-792): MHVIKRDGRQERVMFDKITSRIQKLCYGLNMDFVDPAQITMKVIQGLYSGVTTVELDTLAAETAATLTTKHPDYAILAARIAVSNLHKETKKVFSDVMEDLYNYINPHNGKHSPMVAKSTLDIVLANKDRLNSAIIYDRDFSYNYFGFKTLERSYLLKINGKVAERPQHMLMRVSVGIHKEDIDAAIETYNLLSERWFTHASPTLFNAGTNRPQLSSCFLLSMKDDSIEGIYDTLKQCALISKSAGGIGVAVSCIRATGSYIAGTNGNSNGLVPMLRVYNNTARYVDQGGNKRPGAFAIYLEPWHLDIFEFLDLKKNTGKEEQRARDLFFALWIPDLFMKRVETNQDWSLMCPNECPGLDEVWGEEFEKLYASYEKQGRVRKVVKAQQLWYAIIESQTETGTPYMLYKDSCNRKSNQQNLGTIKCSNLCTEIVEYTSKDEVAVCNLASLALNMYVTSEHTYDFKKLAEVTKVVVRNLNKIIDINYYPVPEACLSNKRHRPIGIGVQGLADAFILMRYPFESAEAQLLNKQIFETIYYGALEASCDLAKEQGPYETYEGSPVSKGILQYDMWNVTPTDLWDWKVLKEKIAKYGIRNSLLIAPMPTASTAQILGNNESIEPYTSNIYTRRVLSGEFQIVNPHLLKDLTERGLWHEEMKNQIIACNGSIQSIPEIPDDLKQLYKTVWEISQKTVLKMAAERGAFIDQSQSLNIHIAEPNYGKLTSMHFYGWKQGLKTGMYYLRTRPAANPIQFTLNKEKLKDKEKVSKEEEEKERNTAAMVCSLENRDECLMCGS
Nature of the assay: AlphaLISA binding assay (interaction between His-R1 and GST-R2). The following applies: recombinant R1 and R2; mean ± SD.

The subject of the next assay is HCC38 xenograft. As to the kind of experiment: Antitumor activity in mice bearing HCC38 xenografts. In kind it is in vivo, mouse. To be noted: 539 mg/kg oral once daily for 14 days (maximum tolerated dose). On the procedure:
Next, we evaluated the antitumor activity of a high-dose administration of TAS1553 and cytarabine in rats bearing MV-4-11 xenografts. […] The rats were treated with cytarabine for 5 days at 16 and 32 mg/kg. […] In addition to the hematologic tumor, we evaluated the antitumor activity of TAS1553 in mice implanted with HCC38 cell line as a solid tumor model. […] Finally, TAS1553 was evaluated for its survival benefit in a mouse model. To achieve this, we established mice bone marrow cells harboring the human MLL-AF9 fusion gene, which is known as a driver gene for AML in humans as well as mice[48]. Mice were transplanted with the cells through the tail vein and the treatment with TAS1553 was started 11 days post-implantation.
For the subcutaneous implantation model of MV-4-11, F344/NJcl-rnu/rnu rats were irradiated with X-ray (4 Gy) to improve the efficiency of xenograft implantation. Two days after X-ray irradiation, MV-4-11 cells suspended in PBS with 50 vol% Matrigel were inoculated into the rats (2 × 10^7 cells/animal). In the mice subcutaneous implantation model, HCC38 cells suspended same as above were inoculated into male BALB/cAJcl-nu/nu mice (1 × 10^7 cells /body). The animals were randomized and administered with the compound for 14 days. Antitumor activity and body weight change were evaluated as previously reported. Dunnett test using the SAS software package in EXSUS (CAC Croit) was used to compare the tumor volume (P < 0.05).

On to `NC(=S)N/N=C/c1ncccc1N` [3-AP, Triapine], for which, in assay [1], the IC50 worked out at 0.364 ± 0.106 µM.

For `O=C(Nc1nc(-c2ccc(O)c(O)c2)c(-c2ccccc2)s1)c1ccc(O)c(O)c1` [COH29], the IC50 in assay [1] turned out to be 6.76 ± 0.71 µM.

Take `CN(C)c1cccc2c(S(=O)(=O)N[C@@H](Cc3ccccc3)C(=O)O)cccc12` [Dansyl-L-phenyl alanine, reference compound]: the IC50 at human R1 came to 3340 ± 540 µM.

Turning to `O=C(N[C@@H](Cc1ccccc1)C(=O)O)OCC1c2ccccc2-c2ccccc21` [Fmoc-L-phenylalanine, reference compound], the IC50 on human R1 came out at 934 ± 35 µM.

Take `NC(=O)NO` [HU, Hydroxyurea, reference compound]: the IC50 in assay [2] is greater than 1000 µM; in assay [1], 188 ± 32 µM.

Take `CCCCCOC(=O)Nc1nc(=O)n([C@@H]2O[C@H](C)[C@@H](O)[C@H]2O)cc1F` [capecitabine]: the T/C ratio with HCC38 xenograft is listed as 67.9%.

The values above are taken from paper PMC9184620, “TAS1553, a small molecule subunit interaction inhibitor of ribonucleotide reductase, exhibits antitumor activity by causing DNA replication stress” (Communications Biology, 2022).
